Test results as given in patent US20240307362A1 (priority 2019, published 2024).
Where “and” joins values, the source holds several entries; their conditions need not be identical. Equal values may be shown once. Read-outs that look alike come from different tables or passages of the source.

Experiments:
human Bub1 = human Bub1 (Homo sapiens (Human), UniProt O43683); test: Bub1 high ATP kinase assay (TR-FRET); assay type: biochemical
Description: Bub1-inhibitory activity of compounds of the present invention at a high ATP concentration was quantified employing the Bub1 TR-FRET high ATP kinase assay as described in the following paragraphs.
N-terminally His6-tagged recombinant catalytic domain of human Bub1 (amino acids 704-1085), expressed in insect cells (Hi5) and purified by Ni-NTA affinity chromatography and subsequent size exclusion chromatography, was used as enzyme.

Ba/F3-EGFR-insSVD = test: Ba/F3 cell survival assay, EGFR-insSVD; assay type: cell-based
Description: (§1) 293T cells from ATCC were transfected with pBABEpuro expression constructs for WT EGFR or EGFR-insSVD and pCL-Eco packaging vector using Fugene-6 transfection reagent from Promega. Plates were incubated at 37° C. for 48 h. Retrovirus was harvested by filtering the media supernatant through a 0.45 μm filter.
(§2) Ba/F3 cells purchased from DSMZ were grown in RPMI+10% FBS+10 ng/mL IL-3 and infected with filtered retroviral supernatant at a 1:2 dilution. Polybrene was added to a concentration of 8 μg/mL, plates were spun for 90 min, and incubated overnight at 37° C. 2 μg/mL puromycin was added to the infected cells 24 h after infection and cells were continually grown in the presence of puromycin and 10 ng/mL IL-3. Following stably expressing Ba/F3 cell lines were generated: Ba/F3-EGFR-WT, Ba/F3-EGFR-insSVD, (Ba/F3-vector-control).
For cell survival assays, Ba/F3 cells were grown to a density of 1-2 million cells per mL, spun down and resuspended in media without IL-3, and replated at a concentration 200,000-500,000 cells per mL. The cells ectopically expressing WT EGFR or EGFR-insSVD were plated with 10 ng/mL Millipore Culture grade EGF. The cells ectopically expressing pBABEpuro empty vector were plated with 10 ng/mL IL-3.
2 days later, cells were plated in 50 μL in a 384 well plate at a concentration of 4000 cells per well for cells assayed in the absence of IL-3 and 2000 cells per well for cells assayed in the presence of IL-3. 100 nL of compound was added to each well using a 100 nL pin head, and plates were incubated at 37° C. for 48 h.
Cell viability was measured by adding 20 μL of Cell Titer-Glo Luminescent Cell Viability Reagent diluted 1:3 in PBS. Plates were sealed with Perkin Elmer Top-Seal, inverted several times to mix, and immediately centrifuged at 1000 rpm for 2 min. Plates were incubated in low light conditions for 8-10 min and luminescence was measured.

Ba/F3-EGFR-WT = test: Ba/F3 cell survival assay, WT EGFR; assay type: cell-based
Description: as §1, §2
The cells ectopically expressing WT EGFR or EGFR-insSVD were plated with 10 ng/mL Millipore Culture grade EGF. The cells ectopically expressing pBABEpuro empty vector were plated with 10 ng/mL IL-3.
100 nL of compound was added to each well using a 100 nL pin head, and plates were incubated at 37° C. for 48 h.
Cell viability was measured by adding 20 μL of Cell Titer-Glo Luminescent Cell Viability Reagent diluted 1:3 in PBS. Plates were sealed with Perkin Elmer Top-Seal, inverted several times to mix, and immediately centrifuged at 1000 rpm for 2 min.

[1] = read-out: Bub1 high ATP (2 mM) IC50, 2 mM ATP
[2] = Mus musculus, BaF3, 48 h, read-out: BA/F3 (insSVD) IC50, cell viability, Cell Titer-Glo, 48 h, with 10 ng/mL EGF, without IL-3
[3] = Mus musculus, BaF3, 48 h, read-out: BA/F3 (wild type) IC50, cell viability, Cell Titer-Glo, 48 h, with 10 ng/mL EGF, without IL-3
[4] = Bub1 high ATP (2 mM) IC50, 2 mM ATP
[5] = read-out: BA/F3 (insSVD) IC50, cell viability, Cell Titer-Glo, 48 h, with 10 ng/mL EGF, without IL-3
[6] = read-out: BA/F3 (wild type) IC50, cell viability, Cell Titer-Glo, 48 h, with 10 ng/mL EGF, without IL-3

Sequence of human Bub1 (O43683 704-1085): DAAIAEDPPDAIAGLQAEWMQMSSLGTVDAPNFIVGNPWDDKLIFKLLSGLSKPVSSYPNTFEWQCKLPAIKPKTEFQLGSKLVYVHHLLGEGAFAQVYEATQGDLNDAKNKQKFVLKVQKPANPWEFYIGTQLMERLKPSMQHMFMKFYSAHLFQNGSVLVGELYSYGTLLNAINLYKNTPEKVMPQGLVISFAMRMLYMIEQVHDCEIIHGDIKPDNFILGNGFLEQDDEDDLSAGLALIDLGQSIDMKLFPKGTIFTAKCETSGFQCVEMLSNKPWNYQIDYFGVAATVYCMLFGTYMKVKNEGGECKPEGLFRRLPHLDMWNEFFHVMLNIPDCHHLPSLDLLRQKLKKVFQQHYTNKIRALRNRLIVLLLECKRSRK

Compound	IC50 (human Bub1; [1])	IC50 (Ba/F3-EGFR-insSVD; [2]) [µM]	IC50 (Ba/F3-EGFR-WT; [3]) [µM]	IC50 (human Bub1; [4]) [µM]	IC50 (Ba/F3-EGFR-insSVD; [5]) [µM]	IC50 (Ba/F3-EGFR-WT; [6]) [µM]
COc1c(Cl)cc(F)cc1Nc1c(-c2ccncc2OCC2CCO2)[nH]c2c1C(=O)NCC2 (racemic) [Example 65, 3-(3-chloro-5-fluoro-2-methoxyanilino)-2-(3-{[oxetan-2-yl]methoxy}pyridin-4-yl)-1,5,6,7-tetrahydro-4H-pyrrolo[3,2-c]pyridin-4-one]	> 20 µM	0.0898	0.911	–	–	–
O=C1NCCc2[nH]c(-c3ccncc3OCC3CCO3)c(Nc3cccc(Cl)c3Cl)c21 (racemic) [Example 10, 3-(2,3-dichloroanilino)-2-{3-[(oxetan-2-yl)methoxy]pyridin-4-yl}-1,5,6,7-tetrahydro-4H-pyrrolo[3,2-c]pyridin-4-one]	13.8 µM	0.0659	1.04	–	–	–
COc1c(Br)cccc1Nc1c(-c2ccncc2OCC2CCO2)[nH]c2c1C(=O)NCC2 (single isomer, unassigned) [Example 35, 3-(3-bromo-2-methoxyanilino)-2-{3-[(oxetan-2-yl)methoxy]pyridin-4-yl}-1,5,6,7-tetrahydro-4H-pyrrolo[3,2-c]pyridin-4-one]	–	–	–	4.97	0.206	1.36
Cc1cccc(Nc2c(-c3ccncc3OCC3CCO3)[nH]c3c2C(=O)NCC3)c1Cl (single isomer, unassigned; (-)) [Example 39, (−)-3-(2-chloro-3-methylanilino)-2-{3-[(oxetan-2-yl)methoxy]pyridin-4-yl}-1,5,6,7-tetrahydro-4H-pyrrolo[3,2-c]pyridin-4-one]	8.32 µM	–	–	–	0.473	1.65
COc1c(F)cccc1Nc1c(-c2ccncc2OCC2OCC2(C)C)[nH]c2c1C(=O)NCC2 (single isomer, unassigned; (-)) [Example 53, (−)-2-{3-[(3,3-dimethyloxetan-2-yl)methoxy]pyridin-4-yl}-3-(3-fluoro-2-methoxyanilino)-1,5,6,7-tetrahydro-4H-pyrrolo[3,2-c]pyridin-4-one]	> 20 µM	–	–	–	–	1.13
CC1(C)COC1COc1cnccc1-c1[nH]c2c(c1Nc1cccc(Cl)c1OC(F)F)C(=O)NCC2 (single isomer, unassigned) [Example 73, 3-[3-chloro-2-(difluoromethoxy)anilino]-2-(3-{[3,3-dimethyloxetan-2-yl]methoxy}pyridin-4-yl)-1,5,6,7-tetrahydro-4H-pyrrolo[3,2-c]pyridin-4-one]	> 20 µM	–	1.91	–	0.0923	–
O=C1NCCc2[nH]c(-c3ccncc3OCC3CCO3)c(Nc3cccc(Cl)c3Cl)c21 (single isomer, unassigned; (-)) [Example 12, (−)-3-(2,3-dichloroanilino)-2-{3-[(oxetan-2-yl)methoxy]pyridin-4-yl}-1,5,6,7-tetrahydro-4H-pyrrolo[3,2-c]pyridin-4-one]	11.3 µM	–	–	–	0.192	0.991
COc1c(Cl)cccc1Nc1c(-c2ccncc2OCC2OCC2(C)C)[nH]c2c1C(=O)NCC2 (single isomer, unassigned; (-)) [Example 51, (−)-3-(3-chloro-2-methoxyanilino)-2-{3-[(3,3-dimethyloxetan-2-yl)methoxy]pyridin-4-yl}-1,5,6,7-tetrahydro-4H-pyrrolo[3,2-c]pyridin-4-one]	17.1 µM and 17.3 µM and > 20 µM	–	–	–	0.153	1.05
COc1c(F)cccc1Nc1c(-c2ccncc2OC[C@H]2CCO2)[nH]c2c1C(=O)NCC2 [Example 6, 3-(3-fluoro-2-methoxyanilino)-2-(3-{[(2R)-oxetan-2-yl]methoxy}pyridin-4-yl)-1,5,6,7-tetrahydro-4H-pyrrolo[3,2-c]pyridin-4-one]	> 13.3 µM	0.276	–	–	–	–
CC1(COc2cnccc2-c2[nH]c3c(c2Nc2cccc(Cl)c2OC(F)F)C(=O)NCC3)CCO1 (single isomer, unassigned) [Example 75, 3-[3-chloro-2-(difluoromethoxy)anilino]-2-(3-{[2-methyloxetan-2-yl]methoxy}pyridin-4-yl)-1,5,6,7-tetrahydro-4H-pyrrolo[3,2-c]pyridin-4-one]	–	0.305	–	> 20	–	–
CC1(COc2cnccc2-c2[nH]c3c(c2Nc2cccc(Cl)c2OC(F)F)C(=O)NCC3)CCO1 (single isomer, unassigned) [Example 76, 3-[3-chloro-2-(difluoromethoxy)anilino]-2-(3-{[2-methyloxetan-2-yl]methoxy}pyridin-4-yl)-1,5,6,7-tetrahydro-4H-pyrrolo[3,2-c]pyridin-4-one]	> 20 µM	–	–	–	0.291	1.88
CCc1c(Cl)cccc1Nc1c(-c2ccncc2OCC2CCO2)[nH]c2c1C(=O)NCC2 (stereo not drawn) [Example 77, 3-(3-chloro-2-ethylanilino)-2-(3-{[oxetan-2-yl]methoxy}pyridin-4-yl)-1,5,6,7-tetrahydro-4H-pyrrolo[3,2-c]pyridin-4-one]	1.76 µM	0.0467	0.777	–	–	–
Cc1c(Cl)cccc1Nc1c(-c2ccncc2OCC2CCO2)[nH]c2c1C(=O)NCC2 (racemic) [Example 7, 3-(3-chloro-2-methylanilino)-2-{3-[(oxetan-2-yl)methoxy]pyridin-4-yl}-1,5,6,7-tetrahydro-4H-pyrrolo[3,2-c]pyridin-4-one]	2.63 µM	0.0482	0.82	–	–	–
COc1c(F)cccc1Nc1c(-c2ccncc2OCC2(C)CCO2)[nH]c2c1C(=O)NCC2 (single isomer, unassigned; (-)) [Example 20, (−)-3-(3-fluoro-2-methoxyanilino)-2-{3-[(2-methyloxetan-2-yl)methoxy]pyridin-4-yl}-1,5,6,7-tetrahydro-4H-pyrrolo[3,2-c]pyridin-4-one]	11.8 µM and > 20 µM	–	–	14.5	–	–
CC1(C)COC1COc1cnccc1-c1[nH]c2c(c1Nc1cccc(Cl)c1OC(F)F)C(=O)NCC2 (racemic) [Example 71, 3-[3-chloro-2-(difluoromethoxy)anilino]-2-(3-{[3,3-dimethyloxetan-2-yl]methoxy}pyridin-4-yl)-1,5,6,7-tetrahydro-4H-pyrrolo[3,2-c]pyridin-4-one]	> 20 µM	0.122	–	–	–	–
O=C1NCCc2[nH]c(-c3ccncc3OCC3CCO3)c(Nc3cccc4c3CCC4)c21 (stereo not drawn) [Example 36, 3-[(2,3-dihydro-1H-inden-4-yl)amino]-2-{3-[(oxetan-2-yl)methoxy]pyridin-4-yl}-1,5,6,7-tetrahydro-4H-pyrrolo[3,2-c]pyridin-4-one]	> 20 µM	0.377	–	–	–	–
COc1c(Cl)cccc1Nc1c(-c2ccncc2OC[C@H]2CCO2)[nH]c2c1C(=O)NCC2 [Example 3, 3-(3-chloro-2-methoxyanilino)-2-(3-{[(2R)-oxetan-2-yl]methoxy}pyridin-4-yl)-1,5,6,7-tetrahydro-4H-pyrrolo[3,2-c]pyridin-4-one]	4.51 µM	0.136	–	–	–	–
COc1c(Cl)cc(F)cc1Nc1c(-c2ccncc2OCC2CCO2)[nH]c2c1C(=O)NCC2 (single isomer, unassigned) [Example 67, 3-(3-chloro-5-fluoro-2-methoxyanilino)-2-(3-{[oxetan-2-yl]methoxy}pyridin-4-yl)-1,5,6,7-tetrahydro-4H-pyrrolo[3,2-c]pyridin-4-one]	> 20 µM	–	–	–	–	5.68
COc1c(Cl)cccc1Nc1c(-c2ccncc2OCC2CCO2)[nH]c2c1C(=O)NCC2 (stereo not drawn) [Example 1, 3-(3-chlor-2-methoxyanilino)-2-[3-(oxetan-2-ylmethoxy)pyridin-4-yl]-1,5,6,7-tetrahydro-4H-pyrrolo[3,2-c]pyridin-4-on]	–	0.0251	0.789	–	–	–
